{"source": "patent US20050063989A1", "about": "“Ion channel hybrid proteins as electrical sensors and use thereof” (COMMISSARIAT A L'ENERGIE ATOMIQUE, priority 2003, published 2005)", "key": {"Kir6.2ΔC36 channels": {"molecular_target": "T1, Kir6.2ΔC36 channels (Mus musculus, UniProt Q61743)", "T1 construct": "expressed in transfected cells; host or cells: Xenopus laevis oocytes; excised inside-out patches", "T1 sequence (Q61743 1-354 limits assumed)": "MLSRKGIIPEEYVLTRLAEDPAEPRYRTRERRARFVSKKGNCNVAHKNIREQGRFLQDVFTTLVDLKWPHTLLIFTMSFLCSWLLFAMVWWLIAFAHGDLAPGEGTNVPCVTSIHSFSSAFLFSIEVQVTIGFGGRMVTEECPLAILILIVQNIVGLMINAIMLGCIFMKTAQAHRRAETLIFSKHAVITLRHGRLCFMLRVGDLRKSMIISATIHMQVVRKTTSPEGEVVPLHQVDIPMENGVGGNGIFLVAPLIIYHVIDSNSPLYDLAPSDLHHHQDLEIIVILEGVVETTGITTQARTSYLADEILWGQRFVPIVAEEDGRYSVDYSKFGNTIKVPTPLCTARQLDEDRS", "experiment": "Inside-out patch-clamp of Kir6.2ΔC36 channels expressed alone in Xenopus oocytes", "type": "cell-based", "source_text": "(§1) Removal of the RKR endoplasmic reticulum retention signal of Kir6.2 was accomplished either by deletion of the last 26 or 36 residues of the C-terminal extremity (Tucker et al., Nature, 1997, 387: 179-183) through introduction of a premature stop codon at the correct position, or by site-directed mutagenesis of RKR to RAA (i.e., K370A and R371A). The resulting constructs, named Kir6.2Δ26, Kir6.2ΔC36, and Kir6.2KR370AA, were created by mutagenesis amplification (QuickChange site-directed mutagenesis kit, Stratagene). The sequences corresponding to the different constructs are as presented in Table 1: SUR2A-Kir6.2ΔC36 (SEQ ID NO: 3), MRP1-Kir6.2ΔC36 (SEQ ID NO: 4), YCF1-Kir6.2ΔC36 (SEQ ID NO: 5) and MRP1-Kir6.2[KR370AA] (SEQ ID NO: 6).\n(§2) mRNAs coding Kir6.2 (˜2 ng) and wild-type SURs (˜6 ng) or mRNAs coding the fusion constructs (˜8 ng) were co-injected into defoliculated Xenopus laevis oocytes. Injected oocytes were stored at 19° C. in Barth's solution (in mM: 1 KCl, 0.82 MgSO4, 88 NaCl, 2.4 NaHCO3, 0.41 CaCl2, 0.3 Ca(NO3)2, 16 HEPES, pH 7.4) with 100 U/ml penicillin, 100 μg/ml streptomycin, and 100 μg/ml gentamycin.\n(§3) Two to 15 days after injection, oocytes were devitellinized and recombinant KATP channels were characterized by the patch-clamp technique in the excised inside-out configuration (Hamill et al., Arch. Eur. J. Physiol., 1981, 391, 85-100). […]"}, "SUR1-Kir6.2 channels": {"molecular_target": "T2, SUR1-Kir6.2 channels (UniProt Q09427+Q61743)", "T2 construct": "expressed in transfected cells; host or cells: Xenopus laevis oocytes injected with in vitro transcribed mRNA; excised inside-out patches", "T2 sequence (Q09427+Q61743 fused)": "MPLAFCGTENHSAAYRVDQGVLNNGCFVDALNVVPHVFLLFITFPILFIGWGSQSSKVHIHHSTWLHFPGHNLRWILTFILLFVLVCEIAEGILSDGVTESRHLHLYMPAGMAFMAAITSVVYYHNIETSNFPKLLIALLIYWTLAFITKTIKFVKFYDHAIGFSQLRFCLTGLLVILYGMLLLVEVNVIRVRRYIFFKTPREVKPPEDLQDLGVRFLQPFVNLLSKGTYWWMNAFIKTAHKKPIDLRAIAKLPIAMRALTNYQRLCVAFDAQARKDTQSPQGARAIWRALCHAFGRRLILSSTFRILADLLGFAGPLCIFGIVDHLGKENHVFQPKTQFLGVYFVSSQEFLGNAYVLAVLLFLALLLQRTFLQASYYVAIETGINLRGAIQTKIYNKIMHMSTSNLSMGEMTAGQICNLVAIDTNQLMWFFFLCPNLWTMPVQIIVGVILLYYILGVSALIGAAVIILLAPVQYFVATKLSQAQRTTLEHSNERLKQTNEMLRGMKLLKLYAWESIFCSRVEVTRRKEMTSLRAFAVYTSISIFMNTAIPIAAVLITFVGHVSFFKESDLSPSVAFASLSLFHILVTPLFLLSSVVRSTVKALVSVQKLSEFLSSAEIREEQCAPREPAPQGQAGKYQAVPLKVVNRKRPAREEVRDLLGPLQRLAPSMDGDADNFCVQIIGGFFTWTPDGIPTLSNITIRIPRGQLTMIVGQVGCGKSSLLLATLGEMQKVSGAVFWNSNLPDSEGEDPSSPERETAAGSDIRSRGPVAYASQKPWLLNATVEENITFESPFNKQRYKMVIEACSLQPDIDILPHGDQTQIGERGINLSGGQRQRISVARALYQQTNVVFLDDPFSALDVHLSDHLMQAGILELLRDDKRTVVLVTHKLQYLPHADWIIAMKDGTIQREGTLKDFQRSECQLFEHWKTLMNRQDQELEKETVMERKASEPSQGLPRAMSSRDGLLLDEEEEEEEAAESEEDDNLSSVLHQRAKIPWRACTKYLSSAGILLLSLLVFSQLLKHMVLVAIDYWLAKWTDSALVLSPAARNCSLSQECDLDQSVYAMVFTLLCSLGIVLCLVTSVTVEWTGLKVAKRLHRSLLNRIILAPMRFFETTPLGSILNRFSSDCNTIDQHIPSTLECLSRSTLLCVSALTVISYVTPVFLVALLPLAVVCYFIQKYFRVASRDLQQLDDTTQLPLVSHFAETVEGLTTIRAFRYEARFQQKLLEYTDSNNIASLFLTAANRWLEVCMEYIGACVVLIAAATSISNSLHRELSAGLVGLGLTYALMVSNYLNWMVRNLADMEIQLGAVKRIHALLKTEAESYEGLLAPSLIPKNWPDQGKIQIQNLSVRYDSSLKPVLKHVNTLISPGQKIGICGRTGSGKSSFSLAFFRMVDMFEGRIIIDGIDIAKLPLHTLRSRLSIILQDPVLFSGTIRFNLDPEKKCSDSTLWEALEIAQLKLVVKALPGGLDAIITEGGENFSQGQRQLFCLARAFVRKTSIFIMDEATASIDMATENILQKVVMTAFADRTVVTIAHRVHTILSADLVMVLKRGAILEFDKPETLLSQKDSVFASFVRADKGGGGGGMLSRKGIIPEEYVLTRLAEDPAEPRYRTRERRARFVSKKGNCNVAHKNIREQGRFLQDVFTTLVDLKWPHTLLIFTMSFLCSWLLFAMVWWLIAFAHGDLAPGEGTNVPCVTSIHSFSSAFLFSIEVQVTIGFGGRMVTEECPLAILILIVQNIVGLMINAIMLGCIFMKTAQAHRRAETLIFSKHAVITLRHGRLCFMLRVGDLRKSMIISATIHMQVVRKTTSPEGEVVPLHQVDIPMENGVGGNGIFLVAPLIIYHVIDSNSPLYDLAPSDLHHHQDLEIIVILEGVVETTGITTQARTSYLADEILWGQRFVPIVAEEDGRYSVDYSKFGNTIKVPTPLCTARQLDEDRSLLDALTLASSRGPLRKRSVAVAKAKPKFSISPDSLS", "experiment": "Inside-out patch-clamp of SUR1-Kir6.2 fusion channels expressed in Xenopus oocytes", "type": "cell-based, hamster SUR1, mouse Kir6.2", "procedure": "as §2\n(§4) Two to 15 days after injection, oocytes were devitellinized and recombinant KATP channels were characterized by the patch-clamp technique in the excised inside-out configuration (Hamill et al., Arch. Eur. J. Physiol., 1981, 391, 85-100). Patch pipettes (2-10 MΩ) contained 154 mM K^+, 146 mM Cl^−, 5 MM Mg^2+, and 10 mM PIPES (pH 7.1). The cytoplasmic face of the patch was bathed in solutions which all contained 174 mM K^+, 40 mM Cl^−, 1 mM EGTA, 1 Mg^2+, 10 mM PIPES (pH 7.1), and methanesulfonate (approximately, 160 mM, depending on the ATP and ADP amounts added—as the remaining anions. ATP and ADP (potassium salt; Sigma), SR47063 (20 mM stock in DMSO; Sanofi Recherche), diazoxide (100 mM stock in DMSO; Sigma) and P1075 (20 mM stock in DMSO; Leo Pharmaceutical Products) were added as specified. The membrane potential was maintained at −50 mV. Experiments were conducted at room temperature (22-24° C.).\n(§5) Applications of the various solutions to the intracellular face of the patch was performed using a RSC-100 rapid-solution-changer (Bio-Logic). Analog signals were filtered at 300 Hz and sampled at 1 kHz. Slow fluctuations of the no-channel-open baseline of the signal were removed by interactive fitting of the baseline with a spline curve and subtraction of this fit from the signal. Acquisition, analysis, and presentation were performed with in-house software."}, "MRP1-Kir6.2KR370AA": {"system": "MRP1-Kir6.2KR370AA", "experiment": "Inside-out patch-clamp of MRP1-Kir6.2KR370AA channels expressed in Xenopus oocytes", "type": "cell-based, human MRP1, mouse Kir6.2", "details": "compared with MRP1-Kir6.2", "source_text": "as §1, §2, §3"}, "MRP1-Kir6.2 channels": {"molecular_target": "T3, MRP1-Kir6.2 channels (Homo sapiens, UniProt P33527, M117T)", "T3 construct": "expressed in transfected cells; host or cells: Xenopus laevis oocytes injected with in vitro transcribed mRNA; excised inside-out patches", "experiment": "Inside-out patch-clamp of MRP1-Kir6.2 fusion channels expressed in Xenopus oocytes", "type": "cell-based, mouse Kir6.2", "procedure": "as §2\nas §4, with “C.). […]” for “C.).”"}, "SUR2A-Kir6.2 channels": {"molecular_target": "T4, SUR2A-Kir6.2 channels (Rattus norvegicus, UniProt Q63563)", "T4 construct": "expressed in transfected cells; host or cells: Xenopus laevis oocytes injected with in vitro transcribed mRNA; excised inside-out patches", "T4 sequence (Q63563 with tags, fused parts or gaps)": "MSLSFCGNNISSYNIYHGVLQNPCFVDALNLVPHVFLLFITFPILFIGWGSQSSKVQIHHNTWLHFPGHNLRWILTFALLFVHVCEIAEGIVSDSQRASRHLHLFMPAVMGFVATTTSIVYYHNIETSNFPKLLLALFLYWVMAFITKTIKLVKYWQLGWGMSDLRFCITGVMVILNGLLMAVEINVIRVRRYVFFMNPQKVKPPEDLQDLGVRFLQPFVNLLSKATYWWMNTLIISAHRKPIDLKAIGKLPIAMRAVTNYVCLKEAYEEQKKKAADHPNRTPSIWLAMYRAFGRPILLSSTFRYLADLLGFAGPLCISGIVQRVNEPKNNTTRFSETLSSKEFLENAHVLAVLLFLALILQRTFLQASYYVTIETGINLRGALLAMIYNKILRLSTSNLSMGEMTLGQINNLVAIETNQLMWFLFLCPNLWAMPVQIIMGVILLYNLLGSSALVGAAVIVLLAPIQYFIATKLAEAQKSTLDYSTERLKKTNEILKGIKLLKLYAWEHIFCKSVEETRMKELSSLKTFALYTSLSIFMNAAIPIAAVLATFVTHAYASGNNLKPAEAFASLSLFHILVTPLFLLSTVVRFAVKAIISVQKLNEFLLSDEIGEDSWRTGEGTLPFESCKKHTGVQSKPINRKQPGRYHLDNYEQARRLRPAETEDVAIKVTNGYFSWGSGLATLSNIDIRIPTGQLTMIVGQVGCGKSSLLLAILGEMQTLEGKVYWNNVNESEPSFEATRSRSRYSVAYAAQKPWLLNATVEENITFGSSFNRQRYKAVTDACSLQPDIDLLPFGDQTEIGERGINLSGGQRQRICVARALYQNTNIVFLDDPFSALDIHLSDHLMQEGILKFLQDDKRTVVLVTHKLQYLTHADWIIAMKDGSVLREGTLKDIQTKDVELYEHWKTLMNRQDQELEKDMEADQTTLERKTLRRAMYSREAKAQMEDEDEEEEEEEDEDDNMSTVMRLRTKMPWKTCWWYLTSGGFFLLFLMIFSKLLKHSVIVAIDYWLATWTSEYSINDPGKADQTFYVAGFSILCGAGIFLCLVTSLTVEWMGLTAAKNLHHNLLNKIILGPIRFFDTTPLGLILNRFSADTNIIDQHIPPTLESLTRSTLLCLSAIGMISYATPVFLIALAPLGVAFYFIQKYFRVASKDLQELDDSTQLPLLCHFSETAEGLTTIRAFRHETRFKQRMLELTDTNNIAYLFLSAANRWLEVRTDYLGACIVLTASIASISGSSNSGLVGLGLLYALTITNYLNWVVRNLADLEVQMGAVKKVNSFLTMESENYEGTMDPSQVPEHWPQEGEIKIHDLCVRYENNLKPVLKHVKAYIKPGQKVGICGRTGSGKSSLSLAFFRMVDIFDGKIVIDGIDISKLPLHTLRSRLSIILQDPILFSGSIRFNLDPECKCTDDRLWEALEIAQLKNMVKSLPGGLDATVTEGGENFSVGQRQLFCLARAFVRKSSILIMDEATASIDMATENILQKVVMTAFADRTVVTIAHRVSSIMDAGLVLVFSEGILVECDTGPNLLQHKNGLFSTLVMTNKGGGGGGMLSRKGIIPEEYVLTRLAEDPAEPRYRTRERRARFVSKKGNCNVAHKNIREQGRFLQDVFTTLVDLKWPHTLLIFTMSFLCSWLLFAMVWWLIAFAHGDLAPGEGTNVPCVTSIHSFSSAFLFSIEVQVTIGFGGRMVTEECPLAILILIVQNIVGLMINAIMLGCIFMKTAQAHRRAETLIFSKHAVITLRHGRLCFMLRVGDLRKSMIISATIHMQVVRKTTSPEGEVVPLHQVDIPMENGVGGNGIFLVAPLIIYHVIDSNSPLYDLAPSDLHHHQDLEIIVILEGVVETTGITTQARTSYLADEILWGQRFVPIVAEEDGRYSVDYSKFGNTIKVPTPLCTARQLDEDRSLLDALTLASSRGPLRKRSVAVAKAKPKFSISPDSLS", "experiment": "Inside-out patch-clamp of SUR2A-Kir6.2 fusion channels expressed in Xenopus oocytes", "type": "cell-based, mouse Kir6.2", "details": "for Effect of K-channel opener on SUR2A-Kir6.2 channels: opener 10 μM, in the presence of partially-inhibiting ATP (100 μM), -50 mV", "procedure": "as §2, §4, §5"}, "YCF1-Kir6.2ΔC36": {"molecular_target": "T5, YCF1-Kir6.2ΔC36 (UniProt P39109+Q61743)", "T5 construct": "expressed in transfected cells; host or cells: Xenopus laevis oocytes injected with in vitro transcribed mRNA; excised inside-out patches", "experiment": "Inside-out patch-clamp of YCF1-Kir6.2ΔC36 channels expressed in Xenopus oocytes", "type": "cell-based, yeast YCF1, mouse Kir6.2", "source_text": "as §1, §2, §3"}, "Xenopus oocytes": {"system": "Xenopus oocytes", "experiment": "Density of active fusion channels: ATP-inhibitable current after patch excision", "type": "cell-based, Xenopus laevis", "procedure": "as §2, §4, §5"}, "[1]": {"details": "ADP at submillimolar concentrations"}, "[2]": {"details": "total current blocked by 2 mM ATP after patch excision"}}}
{"compound": "Nc1ncnc2c1ncn2[C@@H]1O[C@H](COP(=O)(O)OP(=O)(O)O)[C@@H](O)[C@H]1O", "note": "[ADP]", "values": [{"measurement": "Effect of ADP on Kir6.2ΔC36 (SUR-less) channels", "setting": "Kir6.2ΔC36 channels", "result": "inhibited"}, {"measurement": "Effect of ADP on SUR1-Kir6.2 fusion channels", "setting": "SUR1-Kir6.2 channels; [1]", "result": "activation"}, {"measurement": "Sensitivity of MRP1-Kir6.2KR370AA to ADP", "setting": "MRP1-Kir6.2KR370AA", "result": "could not be distinguished from the non-mutated MRP1-Kir6.2 protein"}, {"measurement": "Effect of ADP on MRP1-Kir6.2 currents", "setting": "MRP1-Kir6.2 channels; ADP 100 μM and 300 μM, in the presence of 100 μM ATP", "result": "reduced in a dose-dependent manner"}, {"measurement": "Effect of ADP on SUR2A-Kir6.2 fusion channels", "setting": "SUR2A-Kir6.2 channels; [1]", "result": "activation"}]}
{"compound": "Nc1ncnc2c1ncn2[C@@H]1O[C@H](COP(=O)(O)OP(=O)(O)OP(=O)(O)O)[C@@H](O)[C@H]1O", "note": "[ATP]", "values": [{"measurement": "Sensitivity of SUR1-Kir6.2 channels to ATP", "setting": "SUR1-Kir6.2 channels", "result": "high sensitivity"}, {"measurement": "Sensitivity of MRP1-Kir6.2KR370AA to ATP", "setting": "MRP1-Kir6.2KR370AA", "result": "could not be distinguished from the non-mutated MRP1-Kir6.2 protein"}, {"measurement": "Sensitivity of MRP1-Kir6.2 channels to inhibition by ATP", "setting": "MRP1-Kir6.2 channels", "result": "less sensitive to inhibition by ATP than either SUR-Kir6.2 fusions or wild-type channels"}, {"measurement": "Sensitivity of SUR2A-Kir6.2 channels to ATP", "setting": "SUR2A-Kir6.2 channels", "result": "high sensitivity"}, {"measurement": "Effect of ATP on YCF1-Kir6.2ΔC36 currents", "setting": "YCF1-Kir6.2ΔC36", "result": "ATP-sensitive currents"}]}
{"compound": "CCC(C)(C)N=C(NC#N)Nc1cccnc1", "note": "[P1075]", "values": [{"measurement": "Effect of K-channel opener on SUR2A-Kir6.2 channels", "setting": "SUR2A-Kir6.2 channels", "result": "activated"}]}
{"compound": "CC1(C)C=C(n2ccccc2=NC#N)c2cc([N+](=O)[O-])ccc2O1", "note": "[SR47063]", "values": [{"measurement": "Effect of K-channel opener on SUR2A-Kir6.2 channels", "setting": "SUR2A-Kir6.2 channels", "result": "activated"}]}
{"compound": "CC1=NS(=O)(=O)c2cc(Cl)ccc2N1", "note": "[diazoxide]", "values": [{"measurement": "Effect of opener on SUR1-Kir6.2 channels", "setting": "SUR1-Kir6.2 channels; diazoxide 300 μM", "result": "activated"}]}
{"compound": "MRP1-Kir6.2: fusion of human MRP1 C-terminus to mouse Kir6.2 N-terminus with hexaglycine spacer", "values": [{"measurement": "Patch current, fold lower than SUR1-Kir6.2", "setting": "Xenopus oocytes; [2]", "result": 7, "unit": "fold"}, {"measurement": "Patch current, fold lower than SUR2A-Kir6.2", "setting": "Xenopus oocytes; [2]", "result": 5, "unit": "fold"}]}
{"compound": "YCF1-Kir6.2: fusion of yeast YCF1 with mouse Kir6.2, hexaglycine spacer", "values": [{"measurement": "ATP-inhibitable current of the construct after patch excision", "setting": "Xenopus oocytes", "result": "no detectable exogenous current"}]}
{"compound": "YCF1-Kir6.2ΔC36: YCF1-Kir6.2 fusion with last 36 residues truncated to remove the RKR signal", "values": [{"measurement": "ATP-inhibitable current of the construct after patch excision", "setting": "Xenopus oocytes", "result": "noticeably small compared to the other constructs"}]}
